Assay results reported in the supplement of paper PMC11208160.

Experiment: recombinant UMI read abundance after kanamycin selection (control-corrected) (log10(CPM+1)); higher = more efficient recombination; extreme values may be limits of the assay; sequences stand for … in AGTGCAGAGAAAATCGGCCAGTTTTCTCTGCCTGCAGTCCGCATGCCGTGGGACCCCTTGGGTTCTAACCTGTTGCCTAGATTTATGCAGCGGACTGCCTTTCTCCCAAAGTGATAAACCGG…AGGTTGGTTTCACT; site = the 11-nt donor
How it was run: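 Sequenced counts of recombinant UMIs were turned into CPM, averaged across replicates and scaled with control-derived factors. The reported figure is log10(CPM+1). Those UMIs, each 12 nt long, tagged donor and donor-binding-loop pairs on a plasmid with a promoterless kanamycin gene, screened as a pool in Escherichia coli with IPTG (0.07 mM) plus kanamycin or without selection.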
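Note: IS621 bridge recombinase in Escherichia coli cells against a fixed T5 target plasmid.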

| Sequence | recombinant UMI read abundance (log10) |
| --- | --- |
| TAGCAATCATGGACCGGTTTTCCCGGTAATCCGTATTTGCG (site TAGTAATCTCG) | 0.646 |
| TAGCAGTCATGGACCGGTTTTCCCGGTAATCCGTATTTGTC (site TAGCAGTCTGA) | 2.39 |
| TAGCCAGCATGGACCGGTTTTCCCGGTAATCCGTATTTGAA (site TAGCAAGCTTT) | 0.0207 |
| TAGCCAGCATGGACCGGTTTTCCCGGTAATCCGTATTTGAA (site TAGCCAGCTTT) | 0.924 |
| TAGCCAGCATGGACCGGTTTTCCCGGTAATCCGTATTTGAA (site TAGCGAGCTTT) | 0.0055 |
| TAGCCAGCATGGACCGGTTTTCCCGGTAATCCGTATTTGAA (site TAGCTAGCTTT) | 0.00915 |
| TAGCCTCCATGGACCGGTTTTCCCGGTAATCCGTATTTGGT (site TAGCCTACTAC) | 0.0161 |
| TAGCCTCCATGGACCGGTTTTCCCGGTAATCCGTATTTGGT (site TAGCCTCCTAC) | 0.00993 |
| TAGCCTCCATGGACCGGTTTTCCCGGTAATCCGTATTTGGT (site TAGCCTGCTAC) | 0.0298 |
| TAGCCTCCATGGACCGGTTTTCCCGGTAATCCGTATTTGGT (site TAGCCTTCTAC) | 0 |
| TAGCCTGCATGGACCGGTTTTCCCGGTAATCCGTATTTGGT (site TAGCCTACTAC) | 0.00931 |
| TAGCCTGCATGGACCGGTTTTCCCGGTAATCCGTATTTGGT (site TAGCCTCCTAC) | 0.00394 |
| TAGCCTGCATGGACCGGTTTTCCCGGTAATCCGTATTTGGT (site TAGCCTGCTAC) | 0.0393 |
| TAGCCTGCATGGACCGGTTTTCCCGGTAATCCGTATTTGGT (site TAGCCTTCTAC) | 0.00419 |
| TAGCCTTCATGGACCGGTTTTCCCGGTAATCCGTATTTGAT (site TAGCCTTCTAA) | 0.00922 |
| TAGCCTTCATGGACCGGTTTTCCCGGTAATCCGTATTTGAT (site TAGCCTTCTAC) | 0.0113 |
| TAGCCTTCATGGACCGGTTTTCCCGGTAATCCGTATTTGAT (site TAGCCTTCTAG) | 0 |
| TAGCCTTCATGGACCGGTTTTCCCGGTAATCCGTATTTGAT (site TAGCCTTCTAT) | 0 |
| TAGCCTTCATGGACCGGTTTTCCCGGTAATCCGTATTTGCT (site TAGCCTTCTAA) | 0.0333 |
| TAGCCTTCATGGACCGGTTTTCCCGGTAATCCGTATTTGCT (site TAGCCTTCTAC) | 0.00853 |
| TAGCCTTCATGGACCGGTTTTCCCGGTAATCCGTATTTGCT (site TAGCCTTCTAG) | 0 |
| TAGCCTTCATGGACCGGTTTTCCCGGTAATCCGTATTTGCT (site TAGCCTTCTAT) | 0 |
| TAGCCTTCATGGACCGGTTTTCCCGGTAATCCGTATTTGGT (site AAGCCTTCTAC) | 0.00534 |

| Sequence | recombinant UMI read abundance (log10) |
| --- | --- |
| TAGCCTTCATGGACCGGTTTTCCCGGTAATCCGTATTTGGT (site CAGCCTTCTAC) | 0.00723 |
| TAGCCTTCATGGACCGGTTTTCCCGGTAATCCGTATTTGGT (site GAGCCTTCTAC) | 0.0148 |
| TAGCCTTCATGGACCGGTTTTCCCGGTAATCCGTATTTGGT (site TAACCTTCTAC) | 0 |
| TAGCCTTCATGGACCGGTTTTCCCGGTAATCCGTATTTGGT (site TACCCTTCTAC) | 0.00592 |
| TAGCCTTCATGGACCGGTTTTCCCGGTAATCCGTATTTGGT (site TAGACTTCTAC) | 0 |
| TAGCCTTCATGGACCGGTTTTCCCGGTAATCCGTATTTGGT (site TAGCATTCTAC) | 0.0053 |
| TAGCCTTCATGGACCGGTTTTCCCGGTAATCCGTATTTGGT (site TAGCCATCTAC) | 0.00583 |
| TAGCCTTCATGGACCGGTTTTCCCGGTAATCCGTATTTGGT (site TAGCCCTCTAC) | 0.00791 |
| TAGCCTTCATGGACCGGTTTTCCCGGTAATCCGTATTTGGT (site TAGCCGTCTAC) | 0.0151 |
| TAGCCTTCATGGACCGGTTTTCCCGGTAATCCGTATTTGGT (site TAGCCTACTAC) | 0.0102 |
| TAGCCTTCATGGACCGGTTTTCCCGGTAATCCGTATTTGGT (site TAGCCTCCTAC) | 0.00585 |
| TAGCCTTCATGGACCGGTTTTCCCGGTAATCCGTATTTGGT (site TAGCCTGCTAC) | 0.0178 |
| TAGCCTTCATGGACCGGTTTTCCCGGTAATCCGTATTTGGT (site TAGCCTTCTAA) | 0.0101 |
| TAGCCTTCATGGACCGGTTTTCCCGGTAATCCGTATTTGGT (site TAGCCTTCTAC) | 0.00564 |
| TAGCCTTCATGGACCGGTTTTCCCGGTAATCCGTATTTGGT (site TAGCCTTCTAG) | 0 |
| TAGCCTTCATGGACCGGTTTTCCCGGTAATCCGTATTTGGT (site TAGCCTTCTAT) | 0.017 |
| TAGCCTTCATGGACCGGTTTTCCCGGTAATCCGTATTTGGT (site TAGCCTTCTCC) | 0.0356 |
| TAGCCTTCATGGACCGGTTTTCCCGGTAATCCGTATTTGGT (site TAGCCTTCTGC) | 0 |
| TAGCCTTCATGGACCGGTTTTCCCGGTAATCCGTATTTGGT (site TAGCCTTCTTC) | 0.0121 |
| TAGCCTTCATGGACCGGTTTTCCCGGTAATCCGTATTTGGT (site TAGCGTTCTAC) | 0 |
| TAGCCTTCATGGACCGGTTTTCCCGGTAATCCGTATTTGGT (site TAGCTTTCTAC) | 0 |
| TAGCCTTCATGGACCGGTTTTCCCGGTAATCCGTATTTGGT (site TAGGCTTCTAC) | 0.0025 |
| TAGCCTTCATGGACCGGTTTTCCCGGTAATCCGTATTTGGT (site TAGTCTTCTAC) | 0 |

| Sequence | recombinant UMI read abundance (log10) |
| --- | --- |
| TAGCCTTCATGGACCGGTTTTCCCGGTAATCCGTATTTGGT (site TATCCTTCTAC) | 0.379 |
| TAGCCTTCATGGACCGGTTTTCCCGGTAATCCGTATTTGGT (site TCGCCTTCTAC) | 0.0137 |
| TAGCCTTCATGGACCGGTTTTCCCGGTAATCCGTATTTGGT (site TGGCCTTCTAC) | 0 |
| TAGCCTTCATGGACCGGTTTTCCCGGTAATCCGTATTTGGT (site TTGCCTTCTAC) | 0.0116 |
| TAGCGAGCATGGACCGGTTTTCCCGGTAATCCGTATTTGTC (site TAGCGAGCTGA) | 2.41 |
| TAGCGCTCATGGACCGGTTTTCCCGGTAATCCGTATTTGCA (site TAGCGCTCTTG) | 2.33 |
| TAGCGTTCATGGACCGGTTTTCCCGGTAATCCGTATTTGGT (site TAGCATTCTAC) | 0.538 |
| TAGCGTTCATGGACCGGTTTTCCCGGTAATCCGTATTTGGT (site TAGCCTTCTAC) | 0.00546 |
| TAGCGTTCATGGACCGGTTTTCCCGGTAATCCGTATTTGGT (site TAGCGTTCTAC) | 1.12 |
| TAGCGTTCATGGACCGGTTTTCCCGGTAATCCGTATTTGGT (site TAGCTTTCTAC) | 0 |
| TAGCTAGCATGGACCGGTTTTCCCGGTAATCCGTATTTGAT (site TAGCTAGCTAT) | 1.59 |
| TAGCTAGCATGGACCGGTTTTCCCGGTAATCCGTATTTGAT (site TAGCTAGCTCT) | 0.0164 |
| TAGCTAGCATGGACCGGTTTTCCCGGTAATCCGTATTTGAT (site TAGCTAGCTGT) | 0 |
| TAGCTAGCATGGACCGGTTTTCCCGGTAATCCGTATTTGAT (site TAGCTAGCTTT) | 0.0212 |
| TAGCTAGCATGGACCGGTTTTCCCGGTAATCCGTATTTGCA (site TAGCTAGCTTA) | 0.178 |
| TAGCTAGCATGGACCGGTTTTCCCGGTAATCCGTATTTGCA (site TAGCTAGCTTC) | 0.00756 |
| TAGCTAGCATGGACCGGTTTTCCCGGTAATCCGTATTTGCA (site TAGCTAGCTTG) | 1.01 |
| TAGCTAGCATGGACCGGTTTTCCCGGTAATCCGTATTTGCA (site TAGCTAGCTTT) | 0.0133 |
| TAGCTAGCATGGACCGGTTTTCCCGGTAATCCGTATTTGTA (site TAGCTAGCTTA) | 1.62 |
| TAGCTAGCATGGACCGGTTTTCCCGGTAATCCGTATTTGTA (site TAGCTAGCTTC) | 0.0102 |
| TAGCTAGCATGGACCGGTTTTCCCGGTAATCCGTATTTGTA (site TAGCTAGCTTG) | 0.789 |
| TAGCTAGCATGGACCGGTTTTCCCGGTAATCCGTATTTGTA (site TAGCTAGCTTT) | 0.235 |
